Assay results from the supplement of paper PMC3974653.
Counter-ions that a name gives are not always drawn.

Each compound was assayed on MTT (mouse pheochromocytoma) (assay: IC50 of cell viability (ATP content)). Conditions: (24 or 48 h).
Method in brief: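 Library compounds were tested at 8 final concentrations (0.5 nM to 46 µM) on MTT mouse pheochromocytoma cells for 24 or 48 hrs, with readout by CellTiter-Glo ATP luminescence. Signals were normalised with positive-control wells at 100% and DMSO wells at 0%. IC50 values were obtained by a four-parameter logistic fit.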

SMILES | IC50 of cell viability [µM]
O=C(Nc1ccc(/C=C/c2ccc(NC(=O)c3cc([S+](=O)([O-])O)c4cccnc4c3O)cc2[S+](=O)([O-])O)c([S+](=O)([O-])O)c1)c1cc([S+](=O)([O-])O)c2cccnc2c1O [Ubistatin A] | > 46
C=CCCCCCCCCC(=O)O [Undecylenic acid] | > 46
CCCCCCCC(=O)CC[C@H]1[C@@H](C/C=C/CCCC(=O)OC(C)C)[C@@H](O)C[C@H]1O [Unoprostone Isopropyl Ester] | > 46
Cl.COC1=C(C=CC=C1)N2CCN(CCCNC/3=C/C(=O)N(C)C(=O)N3C)CC2 [Urapidil hydrochloride] | > 46
NC(N)=O [Urea] | > 46
Oc1nc(O)c2[nH]c(O)nc2n1 [Uric acid] | > 46
Cc1onc(-c2ccccc2)c1-c1ccc([S+](N)(=O)[O-])cc1 [VALDECOXIB] | > 46
CC(C)[C@H](N)C(=O)OCC(CO)OC[N]1C=NC2=C1\N=C(\N)NC2=O (some centres not stated) [VALGANCICLOVIR HYDROCHLORIDE] | > 46
CC(C)[C@@H](N)C(=O)O [VALINE] | > 46
C=C[C@@]1(C)C[C@H](OC(=O)CSC(C)(C)CNC(=O)[C@@H](N)C(C)C)[C@@]2(C)C(C)CC[C@@]3(CCC(=O)[C@@H]32)[C@H](C)[C@H]1O (some centres not stated) [VALNEMULIN HYDROCHLORIDE] | > 46
CCCCC(=O)N(Cc1ccc(-c2ccccc2-c2nn[nH]n2)cc1)C(C(=O)O)C(C)C (configuration not stated) [VALSARTAN] | > 46
CN[C@H](CC(C)C)C(=O)N[C@H]1C(=O)N[C@@H](CC(N)=O)C(=O)N[C@H]2C(=O)N[C@H]3C(=O)N[C@H](C(=O)N[C@H](C(=O)O)c4cc(O)cc(O)c4-c4cc3ccc4O)[C@H](O)c3ccc(c(Cl)c3)Oc3cc2cc(c3O[C@@H]2OC(CO)[C@@H](O)[C@H](O)[C@H]2O[C@H]2C[C@](C)(N)[C@H](O)[C@H](C)O2)Oc2ccc(cc2Cl)[C@H]1O (some centres not stated) [VANCOMYCIN HYDROCHLORIDE] | > 46
O=C(O)CC/C=C\CC[C@@H]1[C@@H](N2CCCCC2)[C@@H](O)C[C@@H]1OCc1ccc(-c2ccccc2)cc1 [VAPIPROST HYDROCHLORIDE] | > 46
CCCc1nc(C)c2c(=O)nc(-c3cc([S+](=O)([O-])N4CCN(CC)CC4)ccc3OCC)[nH]n12 [VARDENAFIL HYDROCHLORIDE] | > 46
Clc1ccc(Nc2nnc(Cc3ccncc3)c3ccccc23)cc1 [VATALANIBUM] | > 46
CC(=O)O[C@H]1C[C@@H]2CC[C@@H]3[C@H](CC[C@@]4(C)[C@H]3C[C@H]([N+]3(C)CCCCC3)[C@@H]4OC(C)=O)[C@@]2(C)C[C@@H]1N1CCCCC1 [VECURONIUM BROMIDE] | > 46
COc1ccc(C(CN(C)C)C2(O)CCCCC2)cc1 (configuration not stated) [VENLAFAXINE] | > 46
COc1ccc(CCN(C)CCCC(C#N)(c2ccc(OC)c(OC)c2)C(C)C)cc1OC (configuration not stated) [VERAPAMIL] | > 46
C=CC(N)CCC(=O)O (configuration not stated) [VIGABATRIN] | > 46
CC[C@@]12CCCN3CCc4c(n(c5ccccc45)[C@](O)(C(=O)OC)C1)C32 (some centres not stated) [VINCAMINE] | > 46
CCOC(=O)\C1=C\[C@@]2(CC)CCCN3CCC4=C([C@@H]23)[N]1C5=C4C=CC=C5 [VINPOCETINE] | > 46

SMILES | IC50 of cell viability [µM]
CCOC(=O)\C1=C\[C@]2(CC)CCCN3CCC4=C([C@H]23)[N]1C5=C4C=CC=C5 [VINPOCETINE] | > 46
NCCCC(N)CC(=O)NC1CNC(=O)C(C2CC(O)NC(N)=N2)NC(=O)/C(=C/NC(N)=O)NC(=O)C(CO)NC(=O)C(CO)NC1=O (configuration not stated) [VIOMYCIN SULFATE] | > 46
CCC1NC(=O)C(NC(=O)c2ncccc2O)C(C)OC(=O)C(c2ccccc2)NC(=O)C2CC(=O)CCN2C(=O)C(Cc2ccccc2)N(C)C(=O)C2CCCN2C1=O (configuration not stated) [VIRGINIAMYCIN] | > 46
CC(C)[C@H](N)C(=O)OCCOCn1cnc2c(O)nc(N)nc21 [Valacyclovir hydrochloride] | > 46
CCCCC(=O)O [Valeric acid] | > 46
CCCCC(=O)[O-] [Valeric acid] | > 46
CCCC(CCC)C(=O)O [Valproic acid] | > 46
CCCC(CCC)C(N)=O [Valpromide] | > 46
CN[C@@H](CC(C)C)C(=O)N[C@@H]1C(=O)N[C@H](CC(N)=O)C(=O)N[C@H]2C(=O)N[C@@H]3C(=O)N[C@H](C(=O)N[C@H](C(=O)O)c4cc(O)cc(O)c4-c4cc3ccc4O)[C@H](O)c3ccc(c(Cl)c3)Oc3cc2cc(c3O[C@@H]2O[C@@H](CO)[C@@H](O)[C@@H](O)[C@H]2O[C@H]2C[C@](C)(N)[C@H](O)[C@H](C)O2)Oc2ccc(cc2Cl)[C@@H]1O [Vancomycin hydrochloride] | > 46
CCN(CC)C(=O)c1ccc(O)c(OC)c1 [Vanillic acid diethylamide] | > 46
COc1cc(C=O)ccc1O [Vanillin] | > 46
COc1cc(C(=S)N2CCOCC2)ccc1O [Vanitiolida] | > 46
c1cnc2cc3c(cc2n1)[C@@H]1CNC[C@@H]3C1 [Varenicline Tartrate] | > 46
c1cnc2cc3c(cc2n1)C1CNCC3C1 [Varenicline] | > 46
Clc1ccc(Nc2nnc(Cc3ccncc3)c3ccccc23)cc1 [Vatalanib Dihydrochloride] | > 46
C=CCN1CCCC1CNC(=O)c1cc([S+](N)(=O)[O-])cc(OC)c1OC (configuration not stated) [Veraliprida] | > 46
COc1ccc(/C=N/NC(=O)c2ccncc2)cc1OC [Verazide] | > 46
CC=1C2=CC3=N/C(=C/C4=C(C(=C(N4)/C=C/5\N=C(/C=C(/C1CCC(=O)O)\N2)C(=C5C)CCC(=O)OC)C=C)C)/C6=CC=C([C@H]([C@]36C)C(=O)OC)C(=O)OC.CC1=C2/C=C/3\N=C(/C=C/4\C(=C(/C(/N4)=C/C5=N/C(=C\C(=C1CCC(=O)OC)N2)/C(=C5C)CCC(=O)O)C=C)C)C6=CC=C([C@H]([C@]36C)C(=O)OC)C(=O)OC [Verteporfin] | > 46
CC[C@@]1(O)CC2CN(CCC3=C([NH]C4=CC=CC=C34)[C@](C2)(C(=O)OC)C5=C(OC)C=C6N(C)C7[C@](O)([C@H](O)[C@]8(CC)\C=C/CN9CC[C@@]7([C@H]89)C6=C5)C(N)=O)C1 (some centres not stated) [Vindesine Sulfate Salt] | > 46
C=CS(=O)(=O)[O-] [Vinylsulfonic acid sodium salt solution] | > 46
O=C(O)CCCCC1SCC2NC(=O)NC21 (configuration not stated) [Vitamin B7] | > 46

SMILES | IC50 of cell viability [µM]
CC(=O)Oc1c(C)c(C)c2c(c1C)CC[C@@](C)(CCC[C@H](C)CCC[C@H](C)CCCC(C)C)O2 [Vitamin E acetate] | > 46
CC(C)=CCC/C(C)=C\CC/C(C)=C\CC/C(C)=C\CC1=C(C)C(=O)c2ccccc2C1=O [Vitamin K2] | > 46
CC(c1ncncc1F)[C@](O)(Cn1cncn1)c1ccc(F)cc1F (some centres not stated) [Voriconazole] | > 46
CC(=O)CC(c1ccccc1)C1C(=O)Oc2ccccc2C1=O (configuration not stated) [WARFARIN POTASSIUM] | > 46
CC(=O)CC(C1=CC=CC=C1)C/2=C(O)/C3=CC=CC=C3OC2=O (configuration not stated) [WARFARIN] | > 46
FC(F)(F)c1cccc(C2=CCN(CCc3ccc4ccccc4c3)CC2)c1 [XALIPRODEN HYDROCHLORIDE] | > 46
O=C(NCCNCC(O)COc1ccc(O)cc1)N1CCOCC1 (configuration not stated) [XAMOTEROL] | > 46
CC1=CC=CC(=C1N\C2=N\CCCS2)C [XYLAZINE] | > 46
CN(CCO)CC(O)Cn1cnc2c1c(=O)n(C)c(=O)n2C.O=C(O)c1cccnc1 (configuration not stated) [Xanthinol niacinate] | > 46
O=C(O)c1ccccc1-c1ccc(C(F)(F)F)cc1 [Xenalipin] | > 46
Cc1cccc(C)c1NC(=O)NC1=CCCN1C [Xilobam] | > 46
CCOC(=O)CN[C@@H](C(=O)N1CC[C@H]1C(=O)NCc1ccc(/C(N)=N/O)cc1)C1CCCCC1 [Ximelagatran] | > 46
Cc1cccc(C)c1NC(=O)c1cc([S+](N)(=O)[O-])c(Cl)cc1O [Xipamide] | > 46
CC1=CC(=CC(=C1C\C2=N\CCN2)C)C(C)(C)C [Xylometazoline hydrochloride] | > 46
OC1OC[C@@H](O)[C@H](O)[C@@H]1O (some centres not stated) [Xylose] | > 46
COC(=O)[C@@H]1[C@@H]2C[C@H]3c4[nH]c5ccccc5c4CCN3C[C@@H]2CC[C@@H]1O [Yohimbine] | > 46
O.O=C(O)[C@H]1[C@H]2C[C@H]3c4[nH]c5ccccc5c4CCN3C[C@@H]2CC[C@@H]1O [Yohimbinic acid monohydrate] | > 46
CC1(CN2CCC(n3c(=O)[nH]c4ccccc43)CC2)OCc2ccccc2-n2cccc21 (configuration not stated) [ZALDARIDUM] | > 46
O=C(CCC1CCN(Cc2ccccc2)CC1)c1ccc2c(c1)NCCCC2 [ZANAPEZIL FUMARATE] | > 46
COc1ccc(CCN(C)CCCN2CCc3cc(OC)c(OC)cc3CC2=O)cc1OC [ZATEBRADINUM] | > 46
